Values after ≈ are worked out from the molar mass of the structure shown. Active and inactive are the calls of the source. The calls are words filed in the database; no cut-off is given here.
How the values were obtained:
[1] = tested on: Candida albicans; experiment: Antifungal activity against Candida albicans 901 infected in BALB/c mouse assessed as decrease in collagen fiber content at 0.5 ug/g administered 6 times measured after 4 days in presence of Biphenyl isopropyl ester by GMS staining based analysis; type: functional, organism-based; conditions: dose 0.5 µg/g, time 4.0 day
[2] = tested on: Candida albicans; experiment: Antifungal activity against Candida albicans SC5314 assessed as fungal growth inhibition incubated for 72 hrs by CLSI based susceptibility test; type: functional
[3] = tested on: Candida albicans; experiment: Antifungal activity against FLC-resistant Candida albicans CaR assessed as fungal growth inhibition incubated for 72 hrs by CLSI based susceptibility test; type: functional
[4] = tested on: Candida albicans; experiment: Induction of mitochondrial membrane depolarization in Candida albicans SC5314 by JC-1 staining based flow cytometry (reference value: 12.51 %); type: functional
[5] = target: T1, Lanosterol 14-alpha demethylase (Candida albicans (strain SC5314 / ATCC MYA-2876) (Yeast), UniProt P10613); experiment: Inhibition of CYP51 in Candida albicans SC5314 using lanosterol as substrate incubated for 60 mins by HPLC analysis
T1 sequence (P10613 whole entry): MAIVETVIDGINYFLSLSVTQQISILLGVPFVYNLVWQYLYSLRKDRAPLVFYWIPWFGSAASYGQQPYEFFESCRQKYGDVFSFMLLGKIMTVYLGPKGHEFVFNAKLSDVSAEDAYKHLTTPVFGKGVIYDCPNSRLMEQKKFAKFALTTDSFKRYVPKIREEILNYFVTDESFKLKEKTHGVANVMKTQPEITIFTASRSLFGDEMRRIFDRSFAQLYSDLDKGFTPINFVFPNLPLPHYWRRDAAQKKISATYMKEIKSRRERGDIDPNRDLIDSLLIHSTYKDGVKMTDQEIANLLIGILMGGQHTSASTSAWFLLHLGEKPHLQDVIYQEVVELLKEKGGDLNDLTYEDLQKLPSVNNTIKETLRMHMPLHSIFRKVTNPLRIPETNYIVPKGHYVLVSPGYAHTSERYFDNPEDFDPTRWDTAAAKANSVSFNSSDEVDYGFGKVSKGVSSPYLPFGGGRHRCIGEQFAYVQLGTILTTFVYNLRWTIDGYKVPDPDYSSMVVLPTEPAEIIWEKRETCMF

[6] = tested on: Candida albicans; experiment: Antifungal activity against Candida albicans 901 infected in BALB/c mouse assessed as decrease in collagen fiber content at 0.5 ug/g administered 6 times measured after 4 days in presence of Biphenyl isopropyl ester by Masson staining based analysis; type: functional, organism-based; conditions: dose 0.5 µg/g, time 4.0 day
[7] = target: T1, Lanosterol 14-alpha demethylase; experiment: Inhibition of CYP51 in Candida albicans SC5314 assessed as unknown sterol level at 4 ug/ml incubated for 16 hrs by GC-MS analysis (reference value: 5.35 %); set-up: scale not given: the % may be the effect or the level left; conditions: at 4 µg/mL
[8] = Toxicity in BALB/c mouse infected with Candida albicans 901 assessed as pathological change in liver at 0.5 ug/g administered 6 times measured after 4 days in presence of Biphenyl isopropyl ester by H and E staining based analysis; type: tissue-based; conditions: in vivo, 96 h, dose 0.5 µg/g, time 4 day
[9] = tested on: Candida albicans; experiment: Antifungal activity against FLC-resistant Candida albicans 17# assessed as fungal growth inhibition incubated for 72 hrs by CLSI based susceptibility test; type: functional
[10] = tested on: Candida albicans; experiment: Antifungal activity against FLC-resistant Candida albicans 901 assessed as fungal growth inhibition incubated for 72 hrs by CLSI based susceptibility test; type: functional
[11] = tested on: Candida albicans; experiment: Antifungal activity against Candida albicans 901 infected in BALB/c mouse assessed as repair of tissue damage at 0.5 ug/g administered 6 times measured after 4 days in presence of Biphenyl isopropyl ester by Masson staining based analysis; type: functional, organism-based; conditions: dose 0.5 µg/g, time 4.0 day
[12] = tested on: Candida albicans; experiment: Antifungal activity against Candida albicans 901 infected in BALB/c mouse assessed as inhibition of fungal proliferation at 0.5 ug/g administered 6 times measured after 4 days in presence of Biphenyl isopropyl ester by Masson staining based analysis; type: functional, organism-based; conditions: dose 0.5 µg/g, time 4.0 day
[13] = tested on: Candida albicans; experiment: Induction of immunity in BALB/c mouse infected with Candida albicans 901 assessed as decrease in PD-L1 level at 0.5 ug/g administered 6 times measured after 4 days in presence of Biphenyl isopropyl ester by IHC analysis; type: functional, organism-based; conditions: dose 0.5 µg/g, time 4.0 day
[14] = tested on: Candida albicans; experiment: Induction of immunity in BALB/c mouse infected with Candida albicans 901 assessed as decrease in PD-L1 level at 0.5 ug/g administered 6 times measured after 4 days by IHC analysis; type: functional, organism-based; conditions: dose 0.5 µg/g, time 4.0 day
[15] = tested on: Candida tropicalis; experiment: Antifungal activity against Candida tropicalis ATCC 1369 assessed as fungal growth inhibition incubated for 72 hrs by CLSI based susceptibility test; type: functional
[16] = Toxicity in BALB/c mouse infected with Candida albicans 901 assessed as pathological change in heart at 0.5 ug/g administered 6 times measured after 4 days in presence of Biphenyl isopropyl ester by H and E staining based analysis; type: tissue-based; conditions: in vivo, 96 h, dose 0.5 µg/g, time 4 day
[17] = tested on: Mus musculus; experiment: Antiinflammatory activity in BALB/c mouse infected with Candida albicans 901 assessed as decrease in INF-gamma level at 0.5 ug/g administered 6 times measured after 4 days by Western blot analysis; type: functional, organism-based; conditions: dose 0.5 µg/g, time 4.0 day
[18] = tested on: Cryptococcus neoformans; experiment: Antifungal activity against Cryptococcus neoformans ZKCC 2209 assessed as fungal growth inhibition incubated for 72 hrs by CLSI based susceptibility test; type: functional
[19] = tested on: Candida albicans; experiment: Antifungal activity against Candida albicans 901 infected in BALB/c mouse assessed as inhibition of fungal proliferation at 0.5 ug/g administered 6 times measured after 4 days in presence of Biphenyl isopropyl ester by GMS staining based analysis; type: functional, organism-based; conditions: dose 0.5 µg/g, time 4.0 day
[20] = tested on: Nakaseomyces glabratus; experiment: Antifungal activity against Candida glabrata assessed as fungal growth inhibition incubated for 72 hrs by CLSI based susceptibility test; type: functional
[21] = tested on: Candida albicans; experiment: Induction of apoptosis in Candida albicans SC5314 assessed as necrotic cells incubated for 48 hrs by annexin V-FITC/PI staining based flow cytometry (reference value: 2.12 %); type: functional
[22] = tested on: Mus musculus; experiment: Antiinflammatory activity in BALB/c mouse infected with Candida albicans 901 assessed as decrease in kappaB-p65 level at 0.5 ug/g administered 6 times measured after 4 days by Western blot analysis; type: functional, organism-based; conditions: dose 0.5 µg/g, time 4.0 day
[23] = Toxicity in BALB/c mouse infected with Candida albicans 901 assessed as pathological change in kidney at 0.5 ug/g administered 6 times measured after 4 days in presence of Biphenyl isopropyl ester by H and E staining based analysis; type: tissue-based; conditions: in vivo, 96 h, dose 0.5 µg/g, time 4 day
[24] = tested on: Candida albicans; experiment: Antifungal activity against FLC-resistant Candida albicans 632 assessed as fungal growth inhibition incubated for 72 hrs by CLSI based susceptibility test; type: functional
[25] = Toxicity in BALB/c mouse infected with Candida albicans 901 assessed as pathological change in lung at 0.5 ug/g administered 6 times measured after 4 days in presence of Biphenyl isopropyl ester by H and E staining based analysis; type: tissue-based; conditions: in vivo, 96 h, dose 0.5 µg/g, time 4 day
[26] = tested on: Candida albicans; experiment: Antifungal activity against Candida albicans 901 infected in BALB/c mouse assessed as repair of tissue damage at 0.5 ug/g administered 6 times measured after 4 days in presence of Biphenyl isopropyl ester by GMS staining based analysis; type: functional, organism-based; conditions: dose 0.5 µg/g, time 4.0 day
[27] = target: T1, Lanosterol 14-alpha demethylase; experiment: Inhibition of CYP51 in Candida albicans SC5314 assessed as lanosterol level at 4 ug/ml incubated for 16 hrs by GC-MS analysis relative to control; set-up: scale not given: the % may be the effect or the level left; conditions: at 4 µg/mL
[28] = tested on: Candida albicans; experiment: Induction of immunity in BALB/c mouse infected with Candida albicans 901 assessed as decrease in PD-L1 level at 0.5 ug/g administered 6 times measured after 4 days in presence of Biphenyl isopropyl ester by Western blot analysis; type: functional, organism-based; conditions: dose 0.5 µg/g, time 4.0 day
[29] = tested on: Candida albicans; experiment: Induction of immunity in BALB/c mouse infected with Candida albicans 901 assessed as decrease in PD-L1 level at 0.5 ug/g administered 6 times measured after 4 days by Western blot analysis; type: functional, organism-based; conditions: dose 0.5 µg/g, time 4.0 day
[30] = tested on: Candida albicans; experiment: Antifungal activity against Candida albicans 901 infected in BALB/c mouse assessed as reduction in fungal growth at 0.5 ug/g administered 6 times measured after 4 days by H and E staining based analysis; type: functional, organism-based; conditions: dose 0.5 µg/g, time 4.0 day
[31] = tested on: Mus musculus; experiment: Antiinflammatory activity in BALB/c mouse infected with Candida albicans 901 assessed as decrease in NLRP3 level at 0.5 ug/g administered 6 times measured after 4 days by Western blot analysis; type: functional, organism-based; conditions: dose 0.5 µg/g, time 4.0 day
[32] = tested on: Aspergillus fumigatus; experiment: Antifungal activity against Aspergillus fumigatus KM8001 assessed as fungal growth inhibition incubated for 72 hrs by CLSI based susceptibility test; type: functional
[33] = tested on: Candida albicans; experiment: Antifungal activity against FLC-resistant Candida albicans 904 assessed as fungal growth inhibition incubated for 72 hrs by CLSI based susceptibility test; type: functional
[34] = Toxicity in BALB/c mouse infected with Candida albicans 901 assessed as pathological change in spleen at 0.5 ug/g administered 6 times measured after 4 days in presence of Biphenyl isopropyl ester by H and E staining based analysis; type: tissue-based; conditions: in vivo, 96 h, dose 0.5 µg/g, time 4 day
[35] = tested on: Candida albicans; experiment: Induction of apoptosis in Candida albicans SC5314 assessed as apoptotic cells incubated for 48 hrs by annexin V-FITC/PI staining based flow cytometry (reference value: 2.12 %); type: functional

In the case of CC(=O)N1CCN(c2ccc(OCC3COC(Cn4ccnc4)(c4ccc(Cl)cc4Cl)O3)cc2)CC1 (stereo not given) [KETOCONAZOLE], the Activity [1] is reported as “Active”, the MIC50 [2] is reported as 0.25 µg/mL (≈ 0.47 µM) and the MIC50 [3] is reported as no less than 8 µg/mL. The Activity [4] was 34.74%, the IC50 [5] was 0.13 µM and the Activity [6] was “Active”. For the same molecule, the Activity [7] was 5.07%, the Activity [8] was “Non-Toxic” and the MIC50 [9] was 4 µg/mL (≈ 7.53 µM). The MIC50 [10] was 4 µg/mL (≈ 7.53 µM), the Activity [11] was “Active” and the inhibition [12] was “Active”. The Activity [13] was “Active”, the Activity [14] was “Active” and the MIC50 [15] was 0.5 µg/mL (≈ 0.941 µM). For the same molecule, the Activity [16] was “Non-Toxic”, the Activity [17] was “inactive” and the MIC50 [18] was 4 µg/mL (≈ 7.53 µM). For the same molecule, the inhibition [19] was “Active”, the MIC50 [20] was 1 µg/mL (≈ 1.88 µM) and the Activity [21] was 25.91%. For the same molecule, the Activity [22] was “inactive”, the Activity [23] was “Non-Toxic” and the MIC50 [24] was no less than 8 µg/mL. The Activity [25] was “Non-Toxic”, the Activity [26] was “Active” and the Activity [27] was 13.06%. For the same molecule, the Activity [28] was “Active”, the Activity [29] was “Active” and the Activity [30] was “Active”. For the same molecule, the Activity [31] was “inactive”, the MIC50 [32] was 4 µg/mL (≈ 7.53 µM) and the MIC50 [33] was 4 µg/mL (≈ 7.53 µM). The Activity [34] was “Non-Toxic” and the Activity [35] was 25.91%.

Reference: ChEMBL document CHEMBL5365529, “Construction and Evaluation of Novel Dual-function Antifungal Inhibitors and Covalent Organic Framework Carriers Based on the Infection Microenvironment” (J Med Chem, 2023)
